Results published in publication PMC6522912, “Evaluation of the published kinase inhibitor set to identify multiple inhibitors of bacterial ATP-dependent mur ligases” (Journal of Enzyme Inhibition and Medicinal Chemistry, 2019).

Target: E. coli MurD (Escherichia coli, UniProt P14900)
Assay: biochemical
Conditions: not given
Procedure: (§1) Inhibition of the Mur ligases was determined using the malachite green assay, with slight modifications.
(§2) In all cases, the final concentration of DMSO was 5% (v/v). After incubation for 15 min at 37 °C, the enzyme reaction was terminated by addition of 100 µM Biomol green reagent, and the absorbance was measured at 650 nm after 5 min. All of the experiments were run in duplicate. Residual activities were calculated with respect to control assays without the tested compounds, but with the 5% DMSO carrier.
(§3) The published kinase inhibitor set compounds were evaluated for inhibition of MurC, D and F ligases from E. coli using the Malachite green assay, which detects orthophosphate generated during enzymatic reactions. To avoid non-specific inhibition due to aggregate formation, all of the compounds were tested in the presence of detergent (0.005% Triton-X114). The data are presented as the residual activities of these Mur ligases in the presence of 100 µM of each test compound (Supporting Information Table S1).

Chain of E. coli MurD (P14900 whole entry): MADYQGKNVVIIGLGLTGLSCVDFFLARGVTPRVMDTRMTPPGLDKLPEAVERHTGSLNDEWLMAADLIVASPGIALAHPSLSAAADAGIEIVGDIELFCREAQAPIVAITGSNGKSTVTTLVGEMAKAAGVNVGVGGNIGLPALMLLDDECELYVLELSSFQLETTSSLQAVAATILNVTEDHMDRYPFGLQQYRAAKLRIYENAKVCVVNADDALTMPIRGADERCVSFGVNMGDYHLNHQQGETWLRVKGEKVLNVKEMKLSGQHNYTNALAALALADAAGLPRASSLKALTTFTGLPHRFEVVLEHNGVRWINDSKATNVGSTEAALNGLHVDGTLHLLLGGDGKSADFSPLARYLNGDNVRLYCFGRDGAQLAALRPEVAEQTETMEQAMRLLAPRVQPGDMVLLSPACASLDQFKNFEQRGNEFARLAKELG

Going from `CNC(=O)c1cncc(C=Cc2ccccc2Cl)c1` [Compound 11] to `CNC(=O)c1cncc(C=Cc2c(Cl)cccc2Cl)c1` [Compound 10], the “RA (%) MurD” value falls from 87% to 80%.

For `CNC(=O)Oc1cc(C)c(C=Cc2cncc(C(=O)NC)c2)c(C)c1` [Compound 13], the “RA (%) MurD” value was 69%.

First: Cl.Oc1cccc(-c2nc(-c3ccccc3)[nH]c2-c2ccncc2)c1 [SB-610251-B]
Second: CN1CCC(C(=O)Nc2n[nH]c3nnc(-c4ccccc4)cc23)CC1.Cl [SB-678557-A]
The “RA [%] at 100 µM MurD” value of the first is lower: 13 for the first, 76 for the second.

`CCn1c(-c2nonc2N)nc2cncc(C(=O)N3CC[C@H](N)C3)c21` [SB-772077-B] was tested, and the “RA [%] at 100 µM MurD” value was 90.

Same assay, conditions: 0.25 h, Table S1, PKIS screening; read-out: RA [%] at 100 µM MurD

First: CN1CCN(Cc2ccc(-c3cc4ncnc(Nc5ccc(OCc6cccc(F)c6)c(Cl)c5)c4s3)o2)CC1 [GW784684X]
Second: CCNC(=O)O[C@H]1CN[C@H](C#Cc2cc3ncnc(Nc4ccc(OCc5cccc(F)c5)c(Cl)c4)c3s2)C1 [GSK192082A]
The remaining activity at 100 µM of the first is lower: 52% for the first, 70% for the second.

First: COc1cc(Nc2nccc(-c3cnn4ncccc34)n2)cc(OC)c1 [GW801372X]
Second: COc1cc(Nc2nccc(Nc3ccc4c(C)n[nH]c4c3)n2)cc(OC)c1OC [GW612286X]
The remaining activity at 100 µM of the first is lower: 88% for the first, 94% for the second.

Going from `Fc1ccc(-c2ncn(C3CCNCC3)c2-c2ccnc(Oc3ccccc3)n2)cc1` [SB-239272] to `COc1ccc2ncnc(Nc3ccc(OCc4ccccc4)cc3)c2c1` [GI261520A], the remaining activity at 100 µM falls from 67% to 31%.

First: CS(=O)(=O)CCNCc1ccc(-c2ccc3ncnc(Nc4ccc(OCc5cccc(C(F)(F)F)c5)cc4)c3c2)o1 [GW567808A]
Second: Nc1ncnc2occ(-c3ccc(NC(=O)Nc4cc(C(F)(F)F)cc(C(F)(F)F)c4)cc3)c12 [GW795486X]
The remaining activity at 100 µM of the first is lower: 34% for the first, 57% for the second.

Going from `COc1cc2ncn(-c3cc(OCCc4ccccc4)c(C(N)=O)s3)c2cc1OC` [GSK204925A] to `COc1cc(C=NNc2ncnc3c2cnn3Cc2ccccc2)ccc1O` [GW643971X], the remaining activity at 100 µM rises from 68% to 78%.

Going from `CNC(=O)c1cc(-c2ccc(F)cc2)cc(-c2ccc(S(=O)(=O)N3CCCC3)cc2)c1N` [GSK635416A] to `Cc1ccc(C(=O)NC2CC2)cc1-c1ccc2[nH]ncc2c1` [GW820759X], the remaining activity at 100 µM rises from 43% to 100%.

Compared with `O=C(Nc1n[nH]c2nc(-c3ccco3)ccc12)C1CC1` [SB-743899], `O=C(Nc1n[nH]c2cc(-c3ccccc3)ccc12)C1CC1` [SB-732941] is lower in remaining activity at 100 µM: 89% for the first, 79% for the second.

First: COc1cccc(-n2ncc3c(N/N=C/c4ccc(S(C)(=O)=O)cc4)ncnc32)c1 [GW811168X]
Second: Cc1ccc2c(-c3ccnc(Nc4ccc5c(c4)OCCO5)n3)c(-c3ccc(C(F)(F)F)cc3)nn2n1 [GW832467X]
The remaining activity at 100 µM of the first is higher: 87% for the first, 62% for the second.

Target: E. coli MurC (Escherichia coli, UniProt P17952)
Assay: Malachite green inhibition assay, MurC
Type: biochemical
Conditions: 0.25 h, Table S1, PKIS screening; read-out: RA [%] at 100 µM MurC
Procedure: as §1, §2
as §3, with “S1). […] Additionally, regarding the data of profiled compounds in large panels of human kinase assays[41]” for “S1).”

Chain of E. coli MurC (P17952 whole entry): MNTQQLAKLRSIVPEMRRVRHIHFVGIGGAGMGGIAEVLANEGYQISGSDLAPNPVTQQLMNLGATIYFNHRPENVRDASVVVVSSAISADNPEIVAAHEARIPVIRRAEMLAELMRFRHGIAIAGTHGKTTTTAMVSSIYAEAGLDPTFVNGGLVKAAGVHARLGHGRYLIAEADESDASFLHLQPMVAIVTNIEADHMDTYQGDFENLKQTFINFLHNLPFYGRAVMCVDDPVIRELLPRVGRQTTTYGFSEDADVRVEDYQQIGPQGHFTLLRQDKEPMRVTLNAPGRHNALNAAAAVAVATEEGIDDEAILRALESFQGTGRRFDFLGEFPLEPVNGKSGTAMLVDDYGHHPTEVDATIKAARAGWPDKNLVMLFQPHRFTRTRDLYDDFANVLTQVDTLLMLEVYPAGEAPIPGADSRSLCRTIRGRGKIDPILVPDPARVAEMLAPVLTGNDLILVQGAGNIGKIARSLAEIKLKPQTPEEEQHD

Going from `CN1CCN(Cc2ccc(-c3cc4ncnc(Nc5ccc(OCc6cccc(F)c6)c(Cl)c5)c4s3)o2)CC1` [GW784684X] to `CCNC(=O)O[C@H]1CN[C@H](C#Cc2cc3ncnc(Nc4ccc(OCc5cccc(F)c5)c(Cl)c4)c3s2)C1` [GSK192082A], the remaining activity at 100 µM rises from 20% to 39%.

Going from `COc1cc(Nc2nccc(-c3cnn4ncccc34)n2)cc(OC)c1` [GW801372X] to `COc1cc(Nc2nccc(Nc3ccc4c(C)n[nH]c4c3)n2)cc(OC)c1OC` [GW612286X], the remaining activity at 100 µM falls from 94% to 86%.

First: Fc1ccc(-c2ncn(C3CCNCC3)c2-c2ccnc(Oc3ccccc3)n2)cc1 [SB-239272]
Second: COc1ccc2ncnc(Nc3ccc(OCc4ccccc4)cc3)c2c1 [GI261520A]
The remaining activity at 100 µM of the first is higher: 100% for the first, 58% for the second.

Going from `CS(=O)(=O)CCNCc1ccc(-c2ccc3ncnc(Nc4ccc(OCc5cccc(C(F)(F)F)c5)cc4)c3c2)o1` [GW567808A] to `Nc1ncnc2occ(-c3ccc(NC(=O)Nc4cc(C(F)(F)F)cc(C(F)(F)F)c4)cc3)c12` [GW795486X], the remaining activity at 100 µM falls from 56% to 36%.

`COc1cc2ncn(-c3cc(OCCc4ccccc4)c(C(N)=O)s3)c2cc1OC` [GSK204925A] and `COc1cc(C=NNc2ncnc3c2cnn3Cc2ccccc2)ccc1O` [GW643971X] are the same in remaining activity at 100 µM: 56% for the first, 56% for the second.

First: CNC(=O)c1cc(-c2ccc(F)cc2)cc(-c2ccc(S(=O)(=O)N3CCCC3)cc2)c1N [GSK635416A]
Second: Cc1ccc(C(=O)NC2CC2)cc1-c1ccc2[nH]ncc2c1 [GW820759X]
The remaining activity at 100 µM of the first is higher: 71% for the first, 63% for the second.

First: O=C(Nc1n[nH]c2nc(-c3ccco3)ccc12)C1CC1 [SB-743899]
Second: O=C(Nc1n[nH]c2cc(-c3ccccc3)ccc12)C1CC1 [SB-732941]
The remaining activity at 100 µM of the first is higher: 84% for the first, 80% for the second.

Molecule `COc1cccc(-n2ncc3c(N/N=C/c4ccc(S(C)(=O)=O)cc4)ncnc32)c1` [GW811168X] has a remaining activity at 100 µM of 57%.

Same assay, conditions: 0.25 h, read-out: RA [%] at 100 µM MurC, Table S1, PKIS screening

For `Cc1ccc2c(-c3ccnc(Nc4ccc5c(c4)OCCO5)n3)c(-c3ccc(C(F)(F)F)cc3)nn2n1` [GW832467X], the remaining activity at 100 µM was 22%.

Same assay, conditions: Table S1, PKIS screening

`Cl.Oc1cccc(-c2nc(-c3ccccc3)[nH]c2-c2ccncc2)c1` [SB-610251-B] and `CN1CCC(C(=O)Nc2n[nH]c3nnc(-c4ccccc4)cc23)CC1.Cl` [SB-678557-A] are the same in “RA [%] at 100 µM MurC” value: 74% for the first, 74% for the second.

`CCn1c(-c2nonc2N)nc2cncc(C(=O)N3CC[C@H](N)C3)c21` [SB-772077-B] was tested, and the “RA [%] at 100 µM MurC” value was 77%.

Same assay, conditions: Table S3, aza stilbene compounds

First: CNC(=O)c1cncc(C=Cc2ccccc2Cl)c1 [Compound 11]
Second: CNC(=O)c1cncc(C=Cc2c(Cl)cccc2Cl)c1 [Compound 10]
The “RA (%) MurC” value of the first is lower: 68% for the first, 81% for the second.

With `CNC(=O)Oc1cc(C)c(C=Cc2cncc(C(=O)NC)c2)c(C)c1` [Compound 13] the “RA (%) MurC” value was 68%.

Target: E. coli MurF (Escherichia coli, UniProt P11880)
Assay: biochemical
Conditions: 0.25 h, Table S1, PKIS screening; read-out: RA [%] at 100 µM MurF
Procedure: as §1, §2
as §3, with “S1). […] Additionally, regarding the data of profiled compounds in large panels of human kinase assays[41]” for “S1).”

Chain of E. coli MurF (P11880 whole entry): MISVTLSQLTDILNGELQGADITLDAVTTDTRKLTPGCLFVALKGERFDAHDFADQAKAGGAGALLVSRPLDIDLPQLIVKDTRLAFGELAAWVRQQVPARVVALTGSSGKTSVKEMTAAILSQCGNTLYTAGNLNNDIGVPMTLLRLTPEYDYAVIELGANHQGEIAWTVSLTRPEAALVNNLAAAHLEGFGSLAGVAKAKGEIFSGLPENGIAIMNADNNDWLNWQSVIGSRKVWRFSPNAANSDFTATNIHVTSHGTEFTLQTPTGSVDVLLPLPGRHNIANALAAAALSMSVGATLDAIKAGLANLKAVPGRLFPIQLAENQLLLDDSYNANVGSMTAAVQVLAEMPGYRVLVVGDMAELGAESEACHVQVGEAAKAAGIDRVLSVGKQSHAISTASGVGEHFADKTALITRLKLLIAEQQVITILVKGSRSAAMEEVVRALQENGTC

Going from `CN1CCN(Cc2ccc(-c3cc4ncnc(Nc5ccc(OCc6cccc(F)c6)c(Cl)c5)c4s3)o2)CC1` [GW784684X] to `CCNC(=O)O[C@H]1CN[C@H](C#Cc2cc3ncnc(Nc4ccc(OCc5cccc(F)c5)c(Cl)c4)c3s2)C1` [GSK192082A], the remaining activity at 100 µM falls from 56% to 50%.

First: COc1cc(Nc2nccc(-c3cnn4ncccc34)n2)cc(OC)c1 [GW801372X]
Second: COc1cc(Nc2nccc(Nc3ccc4c(C)n[nH]c4c3)n2)cc(OC)c1OC [GW612286X]
The remaining activity at 100 µM of the first is lower: 80% for the first, 100% for the second.

First: Fc1ccc(-c2ncn(C3CCNCC3)c2-c2ccnc(Oc3ccccc3)n2)cc1 [SB-239272]
Second: COc1ccc2ncnc(Nc3ccc(OCc4ccccc4)cc3)c2c1 [GI261520A]
The remaining activity at 100 µM of the first is lower: 75% for the first, 81% for the second.

Compared with `CS(=O)(=O)CCNCc1ccc(-c2ccc3ncnc(Nc4ccc(OCc5cccc(C(F)(F)F)c5)cc4)c3c2)o1` [GW567808A], `Nc1ncnc2occ(-c3ccc(NC(=O)Nc4cc(C(F)(F)F)cc(C(F)(F)F)c4)cc3)c12` [GW795486X] is lower in remaining activity at 100 µM: 100% for the first, 71% for the second.

Compared with `COc1cc2ncn(-c3cc(OCCc4ccccc4)c(C(N)=O)s3)c2cc1OC` [GSK204925A], `COc1cc(C=NNc2ncnc3c2cnn3Cc2ccccc2)ccc1O` [GW643971X] is lower in remaining activity at 100 µM: 63% for the first, 25% for the second.

First: CNC(=O)c1cc(-c2ccc(F)cc2)cc(-c2ccc(S(=O)(=O)N3CCCC3)cc2)c1N [GSK635416A]
Second: Cc1ccc(C(=O)NC2CC2)cc1-c1ccc2[nH]ncc2c1 [GW820759X]
The remaining activity at 100 µM of the first is higher: 88% for the first, 86% for the second.

Compared with `O=C(Nc1n[nH]c2nc(-c3ccco3)ccc12)C1CC1` [SB-743899], `O=C(Nc1n[nH]c2cc(-c3ccccc3)ccc12)C1CC1` [SB-732941] is lower in remaining activity at 100 µM: 91% for the first, 86% for the second.

First: COc1cccc(-n2ncc3c(N/N=C/c4ccc(S(C)(=O)=O)cc4)ncnc32)c1 [GW811168X]
Second: Cc1ccc2c(-c3ccnc(Nc4ccc5c(c4)OCCO5)n3)c(-c3ccc(C(F)(F)F)cc3)nn2n1 [GW832467X]
The remaining activity at 100 µM of the first is lower: 35% for the first, 73% for the second.

Same assay, conditions: Table S1, PKIS screening

First: Cl.Oc1cccc(-c2nc(-c3ccccc3)[nH]c2-c2ccncc2)c1 [SB-610251-B]
Second: CN1CCC(C(=O)Nc2n[nH]c3nnc(-c4ccccc4)cc23)CC1.Cl [SB-678557-A]
The “RA [%] at 100 µM MurF” value of the first is higher: 96% for the first, 95% for the second.

With `CCn1c(-c2nonc2N)nc2cncc(C(=O)N3CC[C@H](N)C3)c21` [SB-772077-B] the “RA [%] at 100 µM MurF” value was 80%.

Same assay, conditions: Table S3, aza stilbene compounds

Compared with `CNC(=O)c1cncc(C=Cc2ccccc2Cl)c1` [Compound 11], `CNC(=O)c1cncc(C=Cc2c(Cl)cccc2Cl)c1` [Compound 10] is lower in “RA (%) MurF” value: 90% for the first, 77% for the second.

With `CNC(=O)Oc1cc(C)c(C=Cc2cncc(C(=O)NC)c2)c(C)c1` [Compound 13] the “RA (%) MurF” value was 87%.
